EC50 data for 47 compounds are collected here from BindingDB's records for doi:10.7270/Q2N58JS6 (University of Pittsburgh, 2007).

For this assay, the target named is Serine/threonine-protein kinase PLK1 (Homo sapiens, UniProt P53350). Kind of assay: redox cycling hydrogen peroxide generation, dose response, artefact control for Plk1 PBD inhibitor project, biochemical, 1 mM DTT (AID 936).
Serine/threonine-protein kinase PLK1, sequence (P53350 whole entry): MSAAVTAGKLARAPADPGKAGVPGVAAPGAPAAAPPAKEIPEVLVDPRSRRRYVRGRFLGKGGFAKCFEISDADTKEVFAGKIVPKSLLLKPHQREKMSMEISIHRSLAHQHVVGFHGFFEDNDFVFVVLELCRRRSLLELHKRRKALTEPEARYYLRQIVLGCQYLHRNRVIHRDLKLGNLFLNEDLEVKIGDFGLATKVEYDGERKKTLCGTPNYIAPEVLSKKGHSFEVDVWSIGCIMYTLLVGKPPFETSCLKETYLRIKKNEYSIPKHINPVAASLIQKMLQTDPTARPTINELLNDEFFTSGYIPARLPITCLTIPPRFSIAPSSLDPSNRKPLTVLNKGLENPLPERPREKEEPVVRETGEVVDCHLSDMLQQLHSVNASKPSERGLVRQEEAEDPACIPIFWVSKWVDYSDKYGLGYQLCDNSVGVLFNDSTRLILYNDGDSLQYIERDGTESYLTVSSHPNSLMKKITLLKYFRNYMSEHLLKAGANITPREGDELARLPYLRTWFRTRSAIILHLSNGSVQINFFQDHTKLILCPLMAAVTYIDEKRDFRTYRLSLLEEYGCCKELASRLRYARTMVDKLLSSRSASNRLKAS
As to `O=C(CNS(=O)(=O)c1ccc(Br)s1)N1CCCC1` [5-bromanyl-N-(2-oxidanylidene-2-pyrrolidin-1-yl-ethyl)thiophene-2-sulfonamide], the EC50 (in general, the concentration giving half of the maximal effect) is more than 50 µM.
For the compound `Cc1ccc(NC(=O)C2CC=CCC2C(=O)N2CCCCC2)cc1` (configuration not stated) [6-(Piperidine-1-carbonyl)-cyclohex-3-enecarboxylic acid p-tolylamide], the EC50 is more than 50 µM.
The same measure for `COc1ccc2c3c(cccc13)NN=C2C` [6-Methoxy-3-methyl-1H-benzo[de]cinnoline]: more than 50 µM; for `Cc1ccc(Cl)cc1N1CCN(S(=O)(=O)c2ccc3c(c2)oc(=O)n3C)CC1` [6-[4-(5-chloranyl-2-methyl-phenyl)piperazin-1-yl]sulfonyl-3-methyl-1,3-benzoxazol-2-one]: more than 50 µM; for `CC(C)Nc1nnc(SCC(=O)c2c(N)n(Cc3ccccc3)c(=O)n(C)c2=O)s1` [6-amino-1-benzyl-3-methyl-5-[2-[[5-(propan-2-ylamino)-1,3,4-thiadiazol-2-yl]sulfanyl]acetyl]pyrimidine-2,4-dione]: more than 50 µM.
The same measure for `O=C1CCN2C=Nc3cccc4ccc1c2c34` [7,8-dihydro-9H-pyrido[1,2,3-cd]perimidin-9-one]: more than 50 µM; for `CCOC(=O)c1c2c(n(C)c1C)C(=O)C(=O)c1ccc(Br)cc1-2` [8-bromo-2,3-dimethyl-4,5-dioxo-1-benzo[e]indolecarboxylic acid ethyl ester]: 0.723 µM; for `Oc1ccc2ccc3cccc[n+]3c2c1` [9-benzo[c]quinolizin-11-iumol;iodide]: more than 50 µM.
The same measure for `COc1ccc(N(C)C2=NS(=O)(=O)c3ccccc32)cc1` [(1,1-Dioxo-1H-1lambda*6*-benzo[d]isothiazol-3-yl)-(4-methoxy-phenyl)-methyl-amine]: more than 50 µM; for `CC1Cc2ccccc2N1C(=O)c1ccc2c(c1)nnn2C` (configuration not stated) [(1-methyl-5-benzotriazolyl)-(2-methyl-2,3-dihydroindol-1-yl)methanone]: more than 50 µM; for `COc1cccc(OC)c1C(=O)N1CCN(c2ccccn2)CC1` [(2,6-dimethoxyphenyl)-(4-pyridin-2-ylpiperazin-1-yl)methanone]: more than 50 µM.
Compound `O=[N+]([O-])c1ccc(N2CCNCC2)cc1NCC1CCCO1` (configuration not stated) [(2-nitro-5-piperazino-phenyl)-(tetrahydrofurfuryl)amine] gave a concentration for a half-maximal effect (EC50) of more than 50 µM.
The same measure for `CCOC(=O)Cc1csc(NC(=O)CSc2nnc(-c3ccc(F)cc3)o2)n1` [(2-{2-[5-(4-Fluoro-phenyl)-[1,3,4]oxadiazol-2-ylsulfanyl]-acetylamino}-thiazol-4-yl)-acetic acid ethyl ester]: more than 50 µM; for `CCc1noc(C)c1C(=O)N1CCOCC1` [(3-ethyl-5-methyl-1,2-oxazol-4-yl)-morpholin-4-yl-methanone]: more than 50 µM; for `CC1Cn2c(nnc2-c2cc3ccccc3cc2O)S1` (configuration not stated) [(3E)-3-(6-methyl-5,6-dihydro-2H-[1,3]thiazolo[2,3-c][1,2,4]triazol-3-ylidene)naphthalen-2-one]: more than 50 µM.
Regarding `COc1ccc2c(c1OC)C(=O)OC2CC(=O)O` (configuration not stated) [(4,5-dimethoxy-3-oxo-1,3-dihydro-2-benzofuran-1-yl)acetic acid], the EC50 was more than 50 µM.
The same measure for `Nc1cc2nsnc2cc1Br` [(6-bromopiazthiol-5-yl)amine]: more than 50 µM.
The result for `OCC(CO)(CO)N=Cc1cc(Br)ccc1O` [(6E)-4-bromanyl-6-[[[2-(hydroxymethyl)-1,3-bis(oxidanyl)propan-2-yl]amino]methylidene]cyclohexa-2,4-dien-1-one] reads more than 50 µM; that for `C/C(=C\C(=O)Nc1cc(C)on1)c1ccccc1` [(E)-N-(5-methyl-1,2-oxazol-3-yl)-3-phenyl-but-2-enamide], more than 50 µM.
The result for `CCC(=O)N1CCN(c2ccc(NC(=O)c3ccc4c(c3)OCO4)cc2)CC1` [Benzo[1,3]dioxole-5-carboxylic acid [4-(4-propionyl-piperazin-1-yl)-phenyl]-amide] reads more than 50 µM.
Regarding `O=C(NC1(C(F)(F)F)NC(=O)N(CC2CCCCC2)C1=O)c1ccco1` (configuration not stated) [MLS000040678], the EC50 was more than 50 µM.
The same measure for `CCn1ccc(C(=O)Nc2ccc(N(C)C(C)=O)cc2)n1` [MLS000043435]: more than 50 µM; for `Cc1ccccc1NS(=O)(=O)c1cc(C(=O)NCc2ccco2)ccc1C` [MLS000052108]: more than 50 µM; for `c1ccc(NCc2nnc3n2CCCCC3)cc1` [MLS000057041]: more than 50 µM.
The same measure for `CCc1nc2cc(Cl)c(Cl)cc2[nH]1` [MLS000064722]: more than 50 µM.
In the case of `COc1ccc(C(C)C)cc1S(=O)(=O)Nc1ccc(Cl)cn1` [MLS000071127], the 50% effective concentration (EC50) is more than 50 µM.
The same measure for `O=C1C(=C2C(=O)c3ccccc3C2=O)Nc2ccccc21` [MLS000071738]: more than 50 µM.
The result for `CCC(=O)Nc1ccc(-c2nnc(SCC(=O)Nc3nccs3)n2C)cc1` [MLS000076456] reads more than 50 µM; that for `CC(C)OCCCNC(=O)c1ccc(NC(=O)C2CCCO2)cc1` (configuration not stated) [MLS000086701], more than 50 µM; that for `CCOCCCNC(=O)CCCOc1ccccc1` [MLS000088375], more than 50 µM.
On to `CC(C)=CC(=O)NCCc1ccccc1` [MLS000089152], for which the EC50 was more than 50 µM.
Consider `O=C(COc1ccccc1)Nc1ccc(S(=O)(=O)N2CCOCC2)cc1` [MLS000108227], for which the concentration for a half-maximal effect (EC50) was more than 50 µM.
The result for `CCC(C)c1ccc(NC(=O)C2CC2)cc1` (configuration not stated) [MLS000110184] reads more than 50 µM; that for `O=C(Nc1nc2ccccc2s1)c1cc2c(s1)-c1ccccc1OC2` [MLS000522634], more than 50 µM; that for `Cn1cc(SCC(=O)Nc2ccc3c(c2)OCCO3)c2ccccc21` [MLS000529783], more than 50 µM.
The result for `CCC(=O)Nc1ccccc1C(=O)NC1CCCCC1` [MLS000538265] reads more than 50 µM; that for `Cc1[nH]n2c(=O)cc(-c3ccc([N+](=O)[O-])cc3)nc2c1-c1ccccc1` [MLS000547439], more than 50 µM.
Turning to `CCOc1ccccc1N1CCN(C2=C(NS(=O)(=O)c3cccs3)C(=O)c3ccccc3C2=O)CC1` [MLS000551587], the EC50 is more than 50 µM.
The same measure for `O=C(NCCc1ccccc1)/C(=C\c1ccc([N+](=O)[O-])cc1)NC(=O)c1ccccc1` [MLS000575866]: more than 50 µM; for `O=C(NC1(O)C(=O)c2ccccc2C1=O)c1ccccc1` [N-(2-hydroxy-1,3-dioxo-2-indenyl)benzamide]: more than 50 µM.
The result for `CC(=O)N(N=C1Sc2ccccc2C1=O)c1ccccc1C` [N-(2-methylphenyl)-N-[(3-oxo-1-benzothiophen-2-ylidene)amino]acetamide] reads more than 50 µM.
The result for `CC(=O)N(N=C1Sc2ccccc2C1=O)c1cccc(C)c1` [N-(3-methylphenyl)-N-[(3-oxidanylidene-1-benzothiophen-2-ylidene)amino]ethanamide] reads more than 50 µM.
Compound `CC(C)N(Cc1cc2ccccc2[nH]c1=O)C(=O)c1cccnc1` [N-[(2-oxo-1H-quinolin-3-yl)methyl]-N-propan-2-ylpyridine-3-carboxamide] returned a half-maximal effective concentration (EC50) of more than 50 µM.
The result for `CC(=O)N(N=C1Sc2ccccc2C1=O)c1ccccc1` [N-[(Z)-(3-ketobenzothiophen-2-ylidene)amino]-N-phenyl-acetamide] reads more than 50 µM; that for `Cc1cccc2[nH]c3c(N4CCN(C(=O)c5ccco5)CC4)ncnc3c12` [SMR000148910], more than 50 µM.
The result for `NC(=O)C1CCN(C2=C(Cl)C(=O)c3ccccc3C2=O)CC1` [SMR000180199] reads more than 50 µM; that for `COC(=O)c1ccccc1NC1=CC(=NS(=O)(=O)c2cccs2)c2ccccc2C1=O` [methyl 2-[[(4E)-1-oxidanylidene-4-thiophen-2-ylsulfonylimino-naphthalen-2-yl]amino]benzoate], more than 50 µM.
